Assay results as given in publication PMC6266398, “Anti-Acanthamoeba Activity of Brominated Sesquiterpenes from Laurencia johnstonii” (Marine Drugs, 2018).
Values after ≈ are worked out from the molar mass of the structure shown. Values joined by “and” are separate entries in the source; they are usually repeats but may differ in a detail not shown here. Equal values may be shown once. Read-outs that look alike come from different tables or passages of the source.

Assays:
[1] = system: Acanthamoeba castellanii Neff; experiment: anti-Acanthamoeba activity, alamarBlue method; assay type: cell-based; details: for IC50: Acanthamoeba castellanii, ATCC30010, 96 h, read-out: IC50 against Acanthamoeba castellanii Neff; for anti-Acanthamoeba activity (in words): Acanthamoeba castellanii Neff
Procedure: The amoeba strain used in this study was the type strain: Acanthamoeba castellanii Neff (ATCC 30010) which was axenically grown in PYG medium (0.75% (w/v) proteose peptone, 0.75% (w/v) yeast extract and 1.5% (w/v) glucose) containing 40 μg/mL of gentamicin (Biochrom AG, Cultek, Granollers, Barcelona, Spain).
To evaluate the biological activity of the fractions and molecules, the anti-Acanthamoeba assays were determined using the alamarBlue® method as previously described. Firstly, Acanthamoeba strain was seeded in triplicate on a 96-well microtiter plates with 50 μL from a stock solution of 10^4 cells/mL. Amoebae were left to adhere to the bottom of the well for 15 min, which was checked using a Leika DMIL inverted microscope (Leika, Wetzlar, Germany). After that, 50 μL of serial dilutions of the molecules were added to the wells (1% DMSO was used to dissolve the highest dose of the compounds with no effects on the parasites). […] Finally, the alamarBlue Reagent® (Life Technologies, Madrid, Spain) was placed into each well at an amount equal to 10% of the final volume. Then, plates containing alamarBlue® were incubated for 96 h at 26 °C with a slight agitation.
(§1) Briefly, the test plates were analyzed, during an interval of time between 24 and 96 h, on an EnSpire® Multimode Plate Reader (Perkin Elmer, Madrid, Spain) using fluorescence, a test wavelength of 570 nm and a reference wavelength of 630 nm. The percentage of the growth inhibition, 50% inhibitory concentration (IC50 or CC50) was calculated by linear regression analysis with 95% confidence limits using Sigma Plot 12.0 statistical analysis software (Systat Software). All experiments were performed three times, and the mean values were also calculated. A paired two-tailed t-test was used for analysis of the data. Values of p < 0.05 were considered significant.

[2] = cytotoxicity test, alamarBlue method; assay type: cell-based; details: mouse, 37 °C, read-out: CC50 against murine macrophage J774.A1
Procedure: The murine macrophages J774A.1 (ATCC# TIB-67) cell line was cultured in RPMI 1640 medium supplemented with 10% fetal bovine serum at 37 °C and 5% CO2 atmosphere, was used for the cytotoxicity assays.
The cytotoxicity assay was carried out using the alamarBlue® method as previously described. Firstly, the macrophages were seeded in triplicate on a 96-well microtiter plates with 50 μL from a stock solution of 2 × 10^5 cells/mL. Macrophages were left to adhere to the bottom of the well for 15 min, which was checked using a Leika DMIL inverted microscope (Leika, Wetzlar, Germany). After that, 50 μL of serial dilutions of the molecules were added to the wells. Finally, the alamarBlue Reagent® (Life Technologies, Madrid, Spain) was placed into each well at an amount equal to 10% of the final volume. Then, plates containing alamarBlue® were incubated for 24 h at 37 °C in presence of CO2 at 5%.
as §1

[3] = Neff strain (ATCC 30010), alamarBlue, 96 h at 26 °C
[4] = J774A.1 macrophages (ATCC TIB-67)

[H]/N=C(\N/C(=N/[H])NCCCCCCNC(=N)NC(=N)Nc1ccc(Cl)cc1)Nc1ccc(Cl)cc1 [Chlorhexidine, chlorhexidine, reference compound]
IC50 [1, 3]: 1.53 µg/mL and 3.02 µM
CC50 at 24 h [2, 4]: 6.64 ± 0.35 µg/mL (≈ 13.1 µM)

C[C@@H](c1ncncc1F)[C@](O)(Cn1cncn1)c1ccc(F)cc1F [Voriconazole, voriconazole, reference compound]
IC50 [1, 3]: 0.33 µg/mL and 940 nM
CC50 at 24 h [2, 4]: 2.64 ± 0.27 µg/mL (≈ 7.56 µM)

Cc1cc(O)c(C2(C)CCC3CC32C)cc1Br (centres unmarked) [compound 1, laurinterol]
anti-Acanthamoeba activity (in words) [1]: inactive
IC50 [1, 3]: > 100 µg/mL
CC50 at 24 h [2, 4]: 23.6 ± 2.3 µg/mL (≈ 80.1 µM)

C=C1[C@@H](C)CC[C@@]1(C)c1cc(Br)c(C)cc1O [compound 2, isolaurinterol]
anti-Acanthamoeba activity (in words) [1]: inactive
IC50 [1, 3]: > 100 µg/mL
CC50 at 24 h [2, 4]: 7.25 ± 0.7 µg/mL (≈ 24.6 µM)

Cc1cc2c(cc1Br)[C@]1(C)CC[C@H](C)[C@]1(C)O2 [compound 3, aplysin]
IC50 [1, 3]: > 100 µg/mL
CC50 at 24 h [2, 4]: 324 ± 12 µg/mL (≈ 1100 µM)

Cc1ccc([C@]2(C)CC[C@@H](Br)C2(C)C)cc1 [compound 4, α-bromocuparane]
IC50 [1, 3]: 90.7 µg/mL and 322 µM
IC50 against Acanthamoeba castellanii Neff [1, 3]: 90.674 ± 1.529 µg/mL (≈ 322 µM)
CC50 at 24 h [2, 4]: 33 ± 4.2 µg/mL (≈ 117 µM)

Cc1ccc([C@]2(C)CC[C@H](Br)C2(C)C)cc1 [compound 5, α-isobromocuparane]
IC50 [1, 3]: 64.2 µg/mL and 228 µM
IC50 against Acanthamoeba castellanii Neff [1, 3]: 64.251 ± 3.492 µg/mL (≈ 228 µM)
CC50 at 24 h [2, 4]: 85.3 ± 10.9 µg/mL (≈ 303 µM)

Cc1c(Br)cc2c(c1Br)O[C@@]1(C)[C@@H](C)CC[C@@]21C [compound 6, 8-Bromoaplysin]
IC50 [1, 3]: 24.6 µg/mL and 65.6 µM
CC50 at 24 h [2, 4]: 32.9 ± 3.12 µg/mL (≈ 87.9 µM)

Cc1c(Br)cc2c(c1Br)O[C@@]1(C)C[C@@H](Br)CC[C@@]21C [compound 7, 3α-Bromojohnstane]
IC50 [1, 3]: 18.8 µg/mL and 41.5 µM
CC50 at 24 h [2, 4]: 62.3 ± 2.59 µg/mL (≈ 138 µM)

Cc1c(Br)cc2c(c1Br)O[C@@]1(CBr)[C@@H](C)CC[C@@]21C [compound 8, 8,10-Dibromoisoaplysin]
IC50 [1]: 22.8 µg/mL and 50.4 µM
CC50 at 24 h [2]: 70.4 ± 3.25 µg/mL (≈ 155 µM)

Cc1c(Br)cc2c(c1Br)O[C@@]1(CO)[C@@H](C)CC[C@@]21C [compound 9, 8,10-Dibromoaplysinol]
IC50 [1, 3]: 29.9 µg/mL and 76.7 µM
CC50 at 24 h [2, 4]: 74.9 ± 2.77 µg/mL (≈ 192 µM)
